From patent publication US9278097B2, “Prophylaxis and/or treatment of portal hypertension” (Universitatsklinikum Freiburg, priority 2003, dated 2016)

Columns and labels:
Assay type in all cases: in vivo, human
volunteers [1] = assay: Sonographic / Doppler sonographic measurement of blood flow through the liver and blood pressure before and 90 minutes after oral Sildenafil; details: 100 mg oral
Procedure: With ten volunteers, the base values of the blood flow through the liver were measured in the morning before breakfast by means of common sonographic or Doppler sonographic methods. Subsequently, 100 mg Sildenafil were administered orally for each test person. On the average, 90 minutes after administration of this drug, the measurements were repeated.

volunteers [2] = assay: as above; details: 100 mg oral, n = 5, baseline mean 0.83
[3] = system: patients having portal hypertension (origin: liver cirrhosis in the status of Child A); assay: Doppler sonography of liver haemodynamics before and 1 h after oral Vardenafil, patients; details: continuous measurement after 10 mg oral, FIG. 4
Procedure: In a further study, 16 healthy volunteers and 15 patients having portal hypertension (origin: liver cirrhosis in the status of Child A) were subjected to the following treatment:
In both the volunteers and the patients with empty stomach (10 hours of food leave), firstly the pulse rate and blood pressure under lying condition and subsequently the parameters of liver haemodynamics were measured by Doppler sonography.
The portal vein pressure is derived from the values obtained from the application of the apparatus Elegra from Siemens having a 3.5 MHz sectorial scanner (K. Haag et al., Am. J. Roentgenol 1999; 172: 631-635). Each measurement was carried out three times in total. The mean value from all three measurements was used. The measurements were carried out in the resting expiratory position. When measuring the flows and the flow volumina, the sonic angle lied below 60°. The sectional plane was basically chosen such that the vessel will be illustrated in its longitudinal route.
Flow measurements in the Vena portae as well as in their intrahepatic main stems. The determination of the flow volume in the portal vein, the Vena lienalis and the Vena mesenterica was carried out by Doppler-sonography, as measured by the options of the apparatus and by calculation through the formula: flow=π·d^2/4·Vmax2·60, wherein d is indicated in cm and Vmax is indicated in cm/s. Vena Lienalis: […]

[4] = system: patients, who had a pathological collateral or detour circulation, as originally caused by liver cirrhosis; assay: Doppler sonography of flow in the porto-systemic detour circulation before and after oral Vardenafil; details: two patients, single oral administration of 10 mg
Procedure: Hereby, before and after a single oral administration of 10 mg Vardenafil, the flow in the porto-systemic detour circulation was measured by Doppler-sonography: once in a patient having V. coronaria ventriculi as well as oesophagus varices, and another time in a patient having re-opened V. umbilicalis.

[5] = system: patient having liver cirrhosis due to a chronic Hepatitis C; assay: Invasive measurement of wedged hepatic vein pressure (portal vein pressure) by balloon catheter; details: one patient, 25 minutes after 10 mg oral; 31 mm Hg prior to administration
Procedure: In a patient having liver cirrhosis due to a chronic Hepatitis C, the wedged hepatic vein pressure, which can be equated with the portal vein pressure, was measured invasively. For this, a balloon catheter was introduced through the Vena jugularis interna into a small hepatic vein under X-ray control. Then, the free hepatic vein pressure may be measured, when the tip of the catheter lies freely in the lumen of the small vein. When the balloon is dilated (the diameter of this small hepatic vein amounts to a few mm), a congestion pressure is built-up at the tip of the catheter, corresponding to the portal vein pressure. In the tested patient, the portal vein pressure prior to the oral administration of a medicament was at 31 mm Hg.

CCCc1nn(C)c2c(=O)[nH]c(-c3cc(S(=O)(=O)N4CCN(C)CC4)ccc3OCC)nc12 [Sildenafil, 1-{[3-(6,7-Dihydro-1-methyl-7-oxo-3-propyl-1H-pyrazolo-[4,3-d]pyrimidin-5-yl)-4-ethoxyphenyl]sulfonyl}-4-methyl-piperazine]
Diameter of V. lienalis, change by Sildenafil (in %) (volunteers [1]; 90 minutes, n = 10): +13% | Diameter of portal vein, change by Sildenafil (in %) (volunteers [1]; 90 minutes, n = 10): +12.8% | Diastolic blood pressure, change by Sildenafil (in %) (volunteers [1]; 90 minutes, n = 10): −9.5% | Resistivity Index of A. hepatica communis, change by Sildenafil (in %) (volunteers [1]; 90 minutes, n = 10): +4.48% | Resistivity Index of Truncus coeliacus, change by Sildenafil (in %) (volunteers [1]; 90 minutes, n = 10): −1.5% | Vmax of V. lienalis, change by Sildenafil (in %) (volunteers [1]; 90 minutes, n = 10): −2.3% | Vmax of portal vein, change by Sildenafil (in %) (volunteers [1]; 90 minutes, n = 10): −5.3% | Resistivity Index of A. hepatica communis, change by Sildenafil (absolute) (volunteers [1]; 90 minutes, n = 10, baseline mean 0.67): +0.03 | Resistivity Index of Truncus coeliacus, change by Sildenafil (absolute) (volunteers [1]; 90 minutes, n = 10, baseline mean 0.75): −0.115 | Diameter of V. lienalis, change by Sildenafil (absolute) (volunteers [1]; 90 minutes, n = 10, baseline mean 7.7): 1.0 mm | Diameter of portal vein, change by Sildenafil (absolute) (volunteers [1]; 90 minutes, n = 10, baseline mean 11.7): 1.5 mm | Vmax of V. lienalis, change by Sildenafil (absolute) (volunteers [1]; 90 minutes, n = 10, baseline mean 20.14): -0.47 cm/s | Vmax of portal vein, change by Sildenafil (absolute) (volunteers [1]; 90 minutes, n = 10, baseline mean 30.5): -1.63 cm/s | Diastolic blood pressure, change by Sildenafil (absolute) (volunteers [1]; 90 minutes, n = 10, baseline mean 80.5): −7.64 mm Hg | Systolic blood pressure, change by Sildenafil (in %) (volunteers [1]; on average 90 minutes after administration, n = 10): −10.0% | Systolic blood pressure, change by Sildenafil (absolute) (volunteers [1]; on average 90 minutes after administration, n = 10, baseline mean 122): −12.21 mm Hg | Portal vein flow, change by Sildenafil (absolute) (volunteers [2]): +0.27 l/mm

CCCc1nc(C)c2c(=O)[nH]c(-c3cc(S(=O)(=O)N4CCN(CC)CC4)ccc3OCC)nn12 [Vardenafil]
Time after which increase of flow velocity in the portal vein and portal vein flow is clearly detectable ([3]; individual patient (liver cirrhosis), similar in practically all other patients): 15 min | Time at which effect on portal vein flow is most pronounced ([3]; individual patient): 20 to 30 min | Decrease of flow in the V. coronaria ventriculi or in the umbilical vein [4]: about 30% | Portal vein pressure (wedged hepatic vein pressure) [5]: 26 mm Hg
